Read-outs that look alike come from different tables or passages of the source.
What was measured:
non-constipation IBS [1] = test: Study 2 (TARGET 2): rifaximin 550 mg TID 14 days vs placebo in non-C IBS, 10-week follow-up; type: in vivo, human
Experimental: The primary efficacy endpoint of the study was the proportion of subjects who achieved adequate relief of IBS symptoms for at least 2 weeks during the first 4 weeks of the 10-week follow-up phase.
Two measures of efficacy were assessed.
Subjects were questioned on the relief of overall IBS symptoms and bloating. […] The analyses defined success as a “yes” response to questions regarding adequate relief. […]
All subpopulations in the study responded to therapy. Baseline severity was determined during screening for Abdominal Pain/Discomfort and Bloating, and the number, type (normal, hard, loose) and urgency of bowel movements. Duration of effect was assessed in a ten week follow-up period. […]
In TARGET 1 and 2, the primary endpoint was the proportion of patients who achieved adequate relief of IBS symptoms for at least 2 of 4 weeks during the month following 14 days of treatment. Adequate relief was defined as a response of “yes” to the following weekly Subject Global Assessment (SGA) question: “In regards to your IBS symptoms, compared to the way you felt before you started study medication, have you, in the past 7 days, had adequate relief of your IBS symptoms? [Yes/No]”
The key secondary endpoint was the proportion of patients who achieved adequate relief of IBS-related bloating for at least 2 of 4 weeks during the month following 2 weeks of treatment. Adequate relief of IBS-related bloating was defined as a response of “yes” to the following weekly (every 7 days) SGA question: “In regards to your IBS symptom of bloating, compared to the way you felt before you started study medication, have you, in the past 7 days, had adequate relief of your IBS symptom of bloating? […]

P-glycoprotein = molecular target: T1, P-glycoprotein (Homo sapiens, UniProt P08183); test: Bidirectional permeability and efflux ratio of rifaximin in Caco-2 cells with P-glycoprotein inhibitors; type: in vitro ADME; conditions: for Decrease of rifaximin ER in presence of GF120918 (0.5 μM) and verapamil (60 μM): rifaximin 5 μM
T1 construct: Caco-2 cells, a human epithelial colorectal adenocarcinoma cell line; endogenous in cells; host or cells: Caco-2
Description: The ER is the ratio of efflux permeability (basolateral to apical, B-A) to absorptive permeability (apical to basolateral, A-B), and values >1 are indicative of greater efflux than absorption.

cytochrome P450 2C9 = cytochrome P450 2C9 (Homo sapiens, UniProt P11712); test: In vitro cytochrome P450 inhibition; type: biochemical; conditions: 2 to 200 ng/mL
CYP3A4 = CYP3A4 induction study
non-constipation IBS [2] = test: Study 2 (TARGET 2): rifaximin 550 mg TID 14 days vs placebo in non-C IBS, 10-week follow-up; type: in vivo, human; conditions: at least 2 weeks during PEP
IBS = conditions: cited from earlier work
[3] = Study 2, at least 2 weeks during PEP
[4] = TARGET 2, month following two weeks of treatment, 550 mg TID, N = 315
[5] = Pimentel, et al., responders/retreated
[6] = Yang, et al, responders/retreated

T1 sequence (P08183 whole entry): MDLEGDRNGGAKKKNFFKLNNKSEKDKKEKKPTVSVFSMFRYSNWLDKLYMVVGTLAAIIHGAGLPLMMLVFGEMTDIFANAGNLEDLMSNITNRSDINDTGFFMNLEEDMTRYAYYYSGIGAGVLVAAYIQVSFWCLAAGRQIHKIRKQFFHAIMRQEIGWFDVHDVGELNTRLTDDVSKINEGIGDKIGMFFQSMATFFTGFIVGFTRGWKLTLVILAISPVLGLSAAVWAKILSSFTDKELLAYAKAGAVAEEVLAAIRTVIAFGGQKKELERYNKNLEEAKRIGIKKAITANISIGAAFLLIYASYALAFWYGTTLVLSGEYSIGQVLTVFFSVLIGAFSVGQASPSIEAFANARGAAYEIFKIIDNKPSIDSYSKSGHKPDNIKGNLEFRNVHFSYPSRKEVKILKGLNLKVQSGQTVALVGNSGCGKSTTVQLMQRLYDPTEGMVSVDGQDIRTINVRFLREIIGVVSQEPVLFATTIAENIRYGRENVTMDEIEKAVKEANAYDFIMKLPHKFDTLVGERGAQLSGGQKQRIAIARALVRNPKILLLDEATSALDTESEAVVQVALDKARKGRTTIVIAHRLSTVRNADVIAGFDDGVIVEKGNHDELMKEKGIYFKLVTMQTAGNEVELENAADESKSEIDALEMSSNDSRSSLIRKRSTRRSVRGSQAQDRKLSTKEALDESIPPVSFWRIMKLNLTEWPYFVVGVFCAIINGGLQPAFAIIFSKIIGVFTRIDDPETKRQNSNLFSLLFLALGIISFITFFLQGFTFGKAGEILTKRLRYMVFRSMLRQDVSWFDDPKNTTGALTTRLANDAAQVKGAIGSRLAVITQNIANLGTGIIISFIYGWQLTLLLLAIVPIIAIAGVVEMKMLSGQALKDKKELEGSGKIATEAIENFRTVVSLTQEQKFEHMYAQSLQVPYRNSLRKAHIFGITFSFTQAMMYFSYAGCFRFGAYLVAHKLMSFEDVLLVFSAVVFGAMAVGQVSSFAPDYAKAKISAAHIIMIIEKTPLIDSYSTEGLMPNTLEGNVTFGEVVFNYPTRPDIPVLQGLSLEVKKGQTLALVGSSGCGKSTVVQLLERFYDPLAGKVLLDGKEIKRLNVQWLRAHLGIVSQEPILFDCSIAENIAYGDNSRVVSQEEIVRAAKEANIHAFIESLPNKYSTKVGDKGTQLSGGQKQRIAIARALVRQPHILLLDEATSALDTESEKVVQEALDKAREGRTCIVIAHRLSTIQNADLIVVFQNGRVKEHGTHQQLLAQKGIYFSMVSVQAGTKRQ
Chain of cytochrome P450 2C9 (P11712 whole entry): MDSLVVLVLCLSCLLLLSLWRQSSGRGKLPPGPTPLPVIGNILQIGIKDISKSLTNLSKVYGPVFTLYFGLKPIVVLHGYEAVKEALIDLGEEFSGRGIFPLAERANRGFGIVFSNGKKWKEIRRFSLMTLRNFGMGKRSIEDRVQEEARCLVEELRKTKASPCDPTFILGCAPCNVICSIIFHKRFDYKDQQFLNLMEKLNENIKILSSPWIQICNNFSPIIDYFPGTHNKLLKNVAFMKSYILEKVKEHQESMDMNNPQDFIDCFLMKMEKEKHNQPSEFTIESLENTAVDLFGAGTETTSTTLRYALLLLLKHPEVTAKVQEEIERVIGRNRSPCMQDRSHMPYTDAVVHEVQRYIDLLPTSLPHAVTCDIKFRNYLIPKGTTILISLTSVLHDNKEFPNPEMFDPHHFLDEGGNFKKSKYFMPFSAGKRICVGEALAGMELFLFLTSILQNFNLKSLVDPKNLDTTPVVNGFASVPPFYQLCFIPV

## CO[C@H]1/C=C/O[C@@]2(C)Oc3c(C)c(O)c4c(O)c(c5c(nc6cc(C)ccn65)c4c3C2=O)NC(=O)/C(C)=C\C=C\[C@H](C)[C@H](O)[C@@H](C)[C@@H](O)[C@@H](C)[C@H](OC(C)=O)[C@@H]1C [Rifaximin, (2S,16Z,18E,20S,21S,22R,23R,24R,25S,26S,27S,28E)-5,6,21,23,25 Pentahydroxy-27-methoxy-2,4,11,16,20,22,24,26-octamethyl-2,7-(epoxypentadeca-(1,11,13)trienimino) benzofuro (4,5-e) pyrido(1,2-a) benzimidazole-1,15(2H)-dione,25-acetate]
non-constipation IBS [1]; [3]
  Responders: daily abdominal pain < 2 for at least 50% of days in a week: 39%
  Responders: overall reduction of mean weekly abdominal pain by >= 25%: 58%
  Responders: overall reduction of mean weekly abdominal pain by >= 50%: 35%
  Responders: overall reduction of mean weekly abdominal pain by >= 75%: 14%
  Responders: overall reduction of median weekly abdominal pain by >= 25%: 62%
  Responders: overall reduction of median weekly abdominal pain by >= 50%: 44%
non-constipation IBS [1]; [4]
  Abdominal Pain Responders: %: 52%
  Abdominal Pain Responders: n: 165
  Abdominal Pain and Stool Consistency Responders: %: 47%
  Abdominal Pain and Stool Consistency Responders: n: 147
  Adequate Relief of IBS Symptoms: %: 41%
  Adequate Relief of IBS Symptoms: n: 128
  Adequate Relief of IBS-Related Bloating: %: 41%
  Adequate Relief of IBS-Related Bloating: n: 129
  Stool Consistency Responders: %: 74%
  Stool Consistency Responders: n: 233
non-constipation IBS [1]; TARGET 2, ≥2 weeks in month following 2 weeks of treatment
  Monthly responders for abdominal pain (≥30% decrease) and stool consistency (score <4): 47%
non-constipation IBS [1]; Week 1, 550 mg TID
  % with decrease in stool frequency (SF): 14.4%
non-constipation IBS [1]; Week 2, 550 mg TID
  % with decrease in stool frequency (SF): 20.6%
non-constipation IBS [1]; Week 3, 550 mg TID
  % with decrease in stool frequency (SF): 22.2%
non-constipation IBS [1]; Week 4, 550 mg TID
  % with decrease in stool frequency (SF): 21.6%
non-constipation IBS [1]; Week 5, 550 mg TID
  % with decrease in stool frequency (SF): 25.7%
non-constipation IBS [1]; Week 6, 550 mg TID
  % with decrease in stool frequency (SF): 22.9%
non-constipation IBS [1]; Week 7, 550 mg TID
  % with decrease in stool frequency (SF): 23.8%
non-constipation IBS [1]; Week 8, 550 mg TID
  % with decrease in stool frequency (SF): 24.4%
non-constipation IBS [1]; Week 9, 550 mg TID
  % with decrease in stool frequency (SF): 25.4%
non-constipation IBS [1]; Week 10, 550 mg TID
  % with decrease in stool frequency (SF): 26.7%
non-constipation IBS [1]; Week 11, 550 mg TID
  % with decrease in stool frequency (SF): 25.4%
non-constipation IBS [1]; Week 12, 550 mg TID
  % with decrease in stool frequency (SF): 27.0%
P-glycoprotein; Caco-2 cells
  Maximum inhibition of rifaximin efflux permeability due to P-glycoprotein inhibition by verapamil: 12 fold
P-glycoprotein; Caco-2 cells and membrane vesicles
  P-glycoprotein substrate status: substrate for P-glycoprotein
P-glycoprotein; human, Caco-2 monolayers, 0.5, 5, and 50 μM, read-out: Net permeability in the absorptive direction
  Papp A→B: ~1 ×10⁻⁶ cm/s
P-glycoprotein; Round 1
  Decrease of rifaximin ER in presence of GF120918 (0.5 μM) and verapamil (60 μM): 8- to 12 fold
P-glycoprotein; Round 2
  Decrease of rifaximin ER in presence of GF120918 (0.5 μM) and verapamil (60 μM): 3- to 6 fold
Cytochrome P450 2C9
  Inhibition of cytochrome P450 2C9: does not inhibit
CYP3A4
  CYP3A4 induction: induces CYP3A4
non-constipation IBS [2]
  Responders: abdominal pain reduction of 1 point in weekly median: 62%
  Responders: abdominal pain reduction of 2 point in mean: 25%
  Responders: overall reduction of median weekly abdominal pain by >= 75%: 20%
IBS; Jolley (~1 yr), IBS-D patients, 1200 mg/day for 10 days
  Initial treatment response: 56% (25/45)
IBS; Jolley, IBS-D patients, 2400 mg/day for 10 days
  Re-treatment response (at least 1): (at least 1): 54% (13/24)
IBS; Jolley, IBS-D patients
  Complete (>90%) relief: 11% (5/45)
  Complete (>90%) relief upon re-treatment: 13% (3/24)
IBS; Pimentel, et al. (>6 yr), 169 Non-C IBS patients (Rome III), 400-550 mg TID for 14 days
  Initial treatment response: 75% (111/148)
IBS; Pimentel, et al., 1 to 6 re-treatments
  Re-treatment response (at least 1): (at least 1): >75%
IBS; Pimentel, et al.
  Duration of benefit: ~4 m
IBS; [5]
  Re-treatment response, First: 54/65
  Re-treatment response, Second: 38/40
  Re-treatment response, Third: Third: 17/18
IBS; Weinstock (>6 yr), 99 Non-C IBS patients (Rome II), 1200-1650 mg/day for 10 days
  Initial treatment response: 75% (74/99)
IBS; Weinstock
  Patients who did not require re-treatment: 27% did not require
  Patients who maintained response for mean 1.6 y: 41% maintained response
  Patients with only 1-2 retreatment in 2 y: 51% only 1-2 retreatment
IBS; Yang, et al (1.25 yr), 84 IBS patients (Rome I), 1200 mg/day for 10 days
  Initial treatment response: 69% (58/84)
IBS; Yang, et al, 1200 mg/day for 10 days
  Re-treatment response (at least 1): (at least 1): 100%
IBS; [6]
  Re-treatment response, First: 16/16
  Re-treatment response, Second: 4/4

Source: patent US10610522B2, “Methods for retreating irritable bowel syndrome (IBS)” (Salix Pharmaceuticals, Inc., priority 2014, dated 2020)
